Counter-ions that a name gives are not always drawn.
Molecular target: Bcl-2 (Homo sapiens (Human), UniProt P10415)
Assay: Bcl-2 competition binding (fluorescence polarization) assay
Conditions: fluorescein labeled BH3 peptide 15 nM, Bcl-2 protein 30 nM, 3 hours of incubation at room temperature
Experimental: Biological Example 1: Bcl-2 Competition Binding (Fluorescence Polarization) Assay
The fluorescence-labeled 23 amino acid peptide BH3 was purchased from CalBiochem ([…]). […] This binding assay was performed in 96-well plate and with each assay contained 15 and 30 nM of labeled peptide and purified Bcl-2 protein (purchased from R&D Systems, Inc). The assay buffer contained 20 mM Hepes (pH 7.0), 50 mM KCl, 5 mM MgCl2, 20 mM Na2MoO4, 0.1 mg/mi Bovine Gamma Globulin and 0.01% NP40. Compounds were diluted in DMS0 and added to the final assay with concentration range from 20 μM to 2 nM. The polarization degree (mP) value was determined by BioTek Synergy II with background subtraction after 3 hours of incubation at room temperature. IC50 was calculated using Prism software with sigmoidal dose-response curve fitting. ABT-737 was used as reference compound. Such assays, carried out with a range of doses of test compounds, allowed the determination of an approximate IC50 value.

Sequence of Bcl-2 (P10415 whole entry): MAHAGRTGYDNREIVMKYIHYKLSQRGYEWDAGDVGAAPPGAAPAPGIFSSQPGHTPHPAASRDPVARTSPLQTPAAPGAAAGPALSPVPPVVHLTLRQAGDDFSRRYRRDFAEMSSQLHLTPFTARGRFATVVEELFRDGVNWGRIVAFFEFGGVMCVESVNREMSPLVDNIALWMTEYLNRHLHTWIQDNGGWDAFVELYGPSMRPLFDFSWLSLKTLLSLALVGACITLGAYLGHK

In the case of `N#Cc1ccccc1[C@@H]1CCCN1C1CC2(CCN(c3ccc(C(=O)NS(=O)(=O)c4ccc(NCC5CCOCC5)c([N+](=O)[O-])c4)c(N4c5cc6cc[nH]c6nc5O[C@@H]5COC[C@H]54)c3)CC2)C1` [Example 26, 4-{2-[(2S)-2-(2-cyanophenyl)pyrrolidin-1-yl]-7-azaspiro[3.5]nonan-7-yl}-2-[(11R,15S)-13,16-dioxa-2,4,10-triazatetracyclo[7.7.0.0^{3,7}.0^{11,15}]hexadeca-1(9),2,5,7-tetraen-10-yl]-N-{3-nitro-4-[(oxan-4-ylmethyl)amino]benzenesulfonyl}benzamide], the IC50 is reported as 0.7 nM.

With `CP(C)(=O)c1ccccc1[C@@H]1CCCN1C1CC2(CCN(c3ccc(C(=O)NS(=O)(=O)c4ccc(NCC5CCOCC5)c([N+](=O)[O-])c4)c(N4c5cc6cc[nH]c6nc5O[C@@H]5COC[C@H]54)c3)CC2)C1` [Example 29, 4-{2-[(2S)-2-[2-(dimethylphosphoryl)phenyl]pyrrolidin-1-yl]-7-azaspiro[3.5]nonan-7-yl}-2-[(11R,15S)-13,16-dioxa-2,4,10-triazatetracyclo[7.7.0.0^{3,7}.0^{11,15}]hexadeca-1(9),2,5,7-tetraen-10-yl]-N-{3-nitro-4-[(oxan-4-ylmethyl)amino]benzenesulfonyl}benzamide] the IC50 was 1.39 nM.

`CC(C)Nc1ccccc1[C@@H]1CCCN1C1CC2(CCN(c3ccc(C(=O)NS(=O)(=O)c4ccc(NCC5CCOCC5)c([N+](=O)[O-])c4)c(N4c5cc6cc[nH]c6nc5O[C@@H]5COC[C@H]54)c3)CC2)C1` [Example 21, 2-[(11R,15S)-13,16-dioxa-2,4,10-triazatetracyclo[7.7.0.0^{3,7}.0^{11,15}]hexadeca-1(9),2,5,7-tetraen-10-yl]-4-{2-[(2S)-2-[2-(isopropylamino)phenyl]pyrrolidin-1-yl]-7-azaspiro[3.5]nonan-7-yl}-N-{3-nitro-4-[(oxan-4-ylmethyl)amino]benzenesulfonyl}benzamide hydrochloride] was tested, and the IC50 was 0.239 nM.

With `O=C(NS(=O)(=O)c1ccc(NCC2CCOCC2)c([N+](=O)[O-])c1)c1ccc(N2CCC3(CC2)CC(N2CCC[C@H]2c2ccccc2Cl)C3)cc1N1c2cc3cc[nH]c3nc2O[C@@H]2COC[C@H]21` [Example 23, 4-{2-[(2S)-2-(2-chlorophenyl)pyrrolidin-1-yl]-7-azaspiro[3.5]nonan-7-yl}-2-[(11R,15S)-13,16-dioxa-2,4,10-triazatetracyclo[7.7.0.0^{3,7}.0^{11,15}]hexadeca-1(9),2,5,7-tetraen-10-yl]-N-{3-nitro-4-[(oxan-4-ylmethyl)amino]benzenesulfonyl}benzamide hydrochloride] the IC50 was 0.587 nM.

`NC(=O)c1ccccc1[C@@H]1CCCN1C1CC2(CCN(c3ccc(C(=O)NS(=O)(=O)c4ccc(NCC5CCOCC5)c([N+](=O)[O-])c4)c(N4c5cc6cc[nH]c6nc5O[C@@H]5COC[C@H]54)c3)CC2)C1` [Example 30, 4-{2-[(2S)-2-(2-carbamoylphenyl)pyrrolidin-1-yl]-7-azaspiro[3.5]nonan-7-yl}-2-[(11R,15S)-13,16-dioxa-2,4,10-triazatetracyclo[7.7.0.0^{3,7}.0^{11,15}]hexadeca-1(9),2,5,7-tetraen-10-yl]-N-{3-nitro-4-[(oxan-4-ylmethyl)amino]benzenesulfonyl}benzamide] was tested, and the IC50 was 15.8 nM.

In the case of `O=C(NS(=O)(=O)c1ccc(NCC2CCOCC2)c([N+](=O)[O-])c1)c1ccc(N2CCC3(CC2)CC(N2CCC[C@H]2c2ccccc2-c2ccncc2)C3)cc1N1c2cc3cc[nH]c3nc2O[C@@H]2COC[C@H]21` [Example 14, 2-[(11R,15S)-13,16-dioxa-2,4,10-triazatetracyclo[7.7.0.0^{3,7}.0^{11,15}]hexadeca-1(9),2,5,7-tetraen-10-yl]-N-{3-nitro-4-[(oxan-4-ylmethyl)amino]benzenesulfonyl}-4-{2-[(2S)-2-[2-(pyridin-4-yl)phenyl]pyrrolidin-1-yl]-7-azaspiro[3.5]nonan-7-yl}benzamide hydrochloride], the IC50 is reported as 0.74 nM.

— patent US20240166646A1, “1H-PYRROLO[2,3-B]PYRIDINE DERIVATIVES AS BCL-2 INHIBITORS FOR THE TREATMENT OF NEOPLASTIC AND AUTOIMMUNE DISEASES” (Newave Pharmaceutical Inc., priority 2020, published 2024)
